# Source: patent publication US20150071918A1, “PEPTIDES FOR THE TREATMENT OF CANCER” (H. LEE MOFFITT CANCER CENTER AND RESEARCH INSTITUTE, INC., priority 2012, published 2015)
# “Also recorded” adds a separate entry of the source. *1 amine or outer side, *2 acyl side, *3 side chain or, on linkers, in order; H or OH if unused. Where a SMILES comes first, the peptide text is derived from it. Bridges are numbered along the chain shown (N, C = ends). [ ]: non-standard residue; d: D form. The star is where a group is joined. dProlinol(O-CH2CO) = O=C(COC[C@H]1CCCN1[*:1])[*:2]; N(2-Aminoethyl)Gly = O=C(CN(CCN[*:3])[*:1])[*:2]; Nle = CCCC[C@H](N)C(=O)O; Ms = CS(=O)(=O)*
# Assays:
# [1] = system: H929 myeloma cells engrafted into the bone implant; experiment: MM SCID-Hu in vivo model, tumor burden by circulating Kappa/paraprotein levels (ELISA); parameters: species or system mice; settings: H929, 8 mg/kg i.p.
# Protocol: Briefly, 50,000 H929 myeloma cells were engrafted into the bone implant for 10 days prior to initiation of peptide treatment. Following tumor engraftment mice were randomized (0 time point) and injected with 8 mg/kg c-HYD1 or vehicle control (VC) daily (I.P. injections) for 14 days and every other day from day 14-28 at which time treatment stopped. Tumor burden was measured by circulating Kappa levels by ELISA weekly. N=10 mice for vehicle control (VC) and 9 mice for c-HYD1 treated.
# FIG. 49. Cyclic HYD1 (MTI-101) was dosed daily at 8 mpk for the first week and then every other day for 4 weeks. The mice were bled weekly to measure paraprotein as a surrogate for tumor burden. […] Three of five vehicle-treated control animals had died by 35 days which contributes to the large SD.
# FIGS. 61A-61C. MTI-101 inhibits tumor growth and increases survival in two independent myeloma in vivo models. […] FIG. 61A: Scid-hu model: Following tumor engraftment (2 weeks) mice were randomized (0 time point) and injected with 8 mg/kg MT101 or vehicle control (control) daily (i.p. injections) for 14 days and every other day from day 14-28 at which time treatment stopped. Tumor burden was measured by circulating paraprotein (K light chain) levels by ELISA weekly. […] Images were quantified utilizing Image J and tumor volume in the bone was quantified relative to the entire bone volume (n=5 tibias per group).
# [2] = system: Caspase 3 activity and total ATP levels in AML cell lines; experiment: Markers of cell death in AML cell lines (Caspase 3 activity, ATP levels); type: cell-based
# Protocol: FIGS. 42A-42B. […] U937, HL-60 and NB4 cells were treated with varying doses of HM-27 for 24 hr and cell death was determined as described in Materials and Methods. U937 and NB4 cells (150,000) exposed to HM-27 for 24 h were collected and analyzed for Caspase 3 activity using the FITC Active Caspase-3 Apoptosis Kit (BDPharmingen) as per manufacturer's instructions. All figures are a representative of three independent experiments done in triplicates.
# FIGS. 43A-43C. Cell death in AML cell lines by HM-27 (MTI-101) is via necrosis. Drug-treated cells (50 μM for U937 and 75 μM for HL-60) were lysed in 2% Triton X-100 in PBS with protease inhibitors (Roche) and incubated on ice for 45 min with mixing every 15 min. The supernatant (lysate) was collected after centrifugation for 20 sec at 10K rcf and 4° C. […] Twenty microliters (20 μL) of the lysate was mixed with 100 μL of the (rL/L) reagent from the kit and the luminescence was measured immediately. The luminescence was corrected by subtracting the value obtained from the blank and was checked against a standard. The luminescence was then multiplied by 50 to represent the total ATP levels from the 1.2×10^6 cells collected. […]
# Cells were collected after incubation with HM-27 and analyzed for markers of cell death indicative of either apoptosis, autophagy or necrosis. […] Cell death was assessed by TO-PRO-3 staining followed by FACS analysis.
structure (smiles),measurement,setting,value
CCCC[C@@H]1NC(=O)CN(S(C)(=O)=O)CCNC(=O)[C@H](CCCCN)NC(=O)[C@H](CC(C)C)NC(=O)[C@H](CCCCN)NC(=O)[C@H](CC(C)C)NC(=O)[C@H](CCCCN)NC(=O)COC[C@H]2CCCN2C(=O)[C@H](Cc2c[nH]c3ccccc23)NC(=O)[C@H](C)NC(=O)[C@H](C(C)C)NC(=O)[C@H](C(C)C)NC1=O [MTI-101] (Ms-[N(2-Aminoethyl)Gly][Nle]VVAW[dProlinol(O-CH2CO)]KLKLK; lactam 1-C),tumor growth / tumor burden,[1],significantly reduces tumor growth (p<0.05 ANOVA)
same,tumor growth / tumor burden,[1]; listed as c-HYD1,completely inhibits human MM tumor xenographs growth in SCID mice; also recorded: inhibits multiple myeloma engrafted tumor in the SCID-HU model
same,ATP levels in AML cell lines,[2],resulted in ATP depletion
same,Caspase 3 activation in AML cell lines,[2]; 24 h,did not cause activation of Caspase 3
